Laboratory results reported in ChEMBL document CHEMBL4354784, “On the road to structure-based development of anti-virulence therapeutics targeting the type III secretion system injectisome” (Medchemcomm, 2019).

What was measured:
Pseudomonas aeruginosa [1] = assay: Antimicrobial activity against Pseudomonas aeruginosa; type: functional, organism-based
Pseudomonas aeruginosa [2] = assay: Antimicrobial activity against Pseudomonas aeruginosa infected in mouse assessed as increasing survival rate after 6 days (RVB = 20%); type: functional
Salmonella enterica = assay: Antimicrobial activity against Salmonella enterica infected in mouse assessed as increasing survival rate on day 9 relative to control; type: functional
[3] = test system: Yersinia pseudotuberculosis; assay: Inhibition of Yersinia pseudotuberculosis serotype 3 T3SS assessed as reduction in YopD protein expression at > 13 uM preincubated for 1 hr at 26 degC and subsequently incubated for 3 hrs at 37 degC by Western blot analysis relative to control
[4] = Inhibition of Yersinia pseudotuberculosis serotype 3 T3SS assessed as reduction in YopH protein secretion using p-nitro phenyl phosphat/2-(N-morpholino)ethanesulfonic acid as substrate preincubated for 1 hr at 26 degC and subsequently incubated for 2 hrs at 37 degC followed by addition of substrate and measured after 15 mins
[5] = test system: Yersinia pseudotuberculosis; assay: Inhibition of Yersinia pseudotuberculosis serotype 3 T3SS assessed as reduction in YopD protein secretion at > 13 uM preincubated for 1 hr at 26 degC and subsequently incubated for 3 hrs at 37 degC by Western blot analysis relative to control
[6] = Inhibition of Pseudomonas aeruginosa MDM1912 T3SS assessed as reduction in ExoS-BLA fusion protein secretion by measuring hydrolysis of the chromogenic beta-lactamase substrate nitrocefin by colorimetric method

**Q.** For NCCCNCCCCNCCCNC(=O)c1ccccc1C1=c2cc3c4c(c2Oc2c1cc1c5c2CCCN5CCC1)CCC[N+]=4CCC3, which EC50 (Pseudomonas aeruginosa [1]) is on record?
**A.** The EC50 was 10 µM.

**Q.** And the MIC50 (Pseudomonas aeruginosa [1])?
**A.** The MIC50 was greater than 10 µM.

**Q.** And the Survival (Pseudomonas aeruginosa [2])?
**A.** Its Survival is 100%.

**Q.** Which Survival (Salmonella enterica) does the source give for Cc1ccc(C(C)C)c(O)c1 [THYMOL] here?
**A.** The Survival was 70%.

**Q.** For Oc1ccc([C@@H]2c3c(O)cc(O)cc3[C@@H]3c4c(cc(O)cc4[C@H]2[C@@H]2c4cc(O)cc5c4[C@@H](c4cc(O)cc(O)c4[C@H]2c2ccc(O)cc2)[C@H](c2ccc(O)cc2)O5)O[C@H]3c2ccc(O)cc2)cc1, which inhibition [3] is on record?
**A.** Its inhibition is 100%.

**Q.** What about the IC50 [4] of the same compound?
**A.** Its IC50 is greater than 10 µM.

**Q.** What about the inhibition [5] of the same compound?
**A.** The inhibition was 100%.

**Q.** For O=C(N/N=C/c1cc(Br)cc(Br)c1O)c1ccc([N+](=O)[O-])cc1, which IC50 [6] is on record?
**A.** The IC50 was 800 nM.
